# Experimental data as given in patent publication US11390604B2 (Hoffmann-La Roche Inc., priority 2019, dated 2022).
# Counter-ions that a name gives are not always drawn.
# Test system: Acinetobacter baumannii ATCC 17961
# Assay: Antimicrobial susceptibility testing: 90% growth inhibitory concentration (IC90) determination
# Assay type: cell-based
# Details: ATCC17961, Acinetobacter baumannii ATCC 17961, Iso-Sensitest broth, read-out: ATCC 17961 IC90
# Method: Antimicrobial Susceptibility Testing:
# 90% Growth Inhibitory Concentration (IC90) Determination
# The in vitro antimicrobial activity of the compounds was determined according to the following procedure:
# The assay used a 10-points Iso-Sensitest broth medium to measure quantitatively the in vitro activity of the compounds against Acinetobacter baumannii ATCC 17961.
# Stock compounds in DMSO were serially twofold diluted (e.g. range from 50 to 0.097 μM final concentration) in 384 wells microtiter plates and inoculated with 49 μl the bacterial suspension in Iso-Sensitest medium to have a final cell concentration of ˜5×10^(5) CFU/ml in a final volume/well of 50 ul/well. Microtiter plates were incubated at 35±2° C.
# Bacterial cell growth was determined with the measurement of optical density at X=600 nm each 20 minutes over a time course of 16 h. Growth inhibition was calculated during the logarithmic growth of the bacterial cells with determination of the concentration inhibiting 50% (IC50) and 90% (IC90) of the growth.
# Table 1 provides the 90% growth inhibitory concentrations (IC90) in micromoles per liter of the compounds of present disclosure obtained against the strain Acinetobacter baumannii ATCC 17961.
row,Compound,IC90 [nM]
1,"Cn1c(-c2cn(C3CC3(F)F)nc2C(F)(F)F)cnc1C(=O)Nc1ccc(C(=O)N[C@H]2[C@@H]3CN(C(=O)N[C@@H]4CCC[C@@H]4N)C[C@@H]32)c(Cl)c1 (mixture of isomers) [Example 186, cis-N-[(1R,2S)-2-aminocyclopentyl]-6-[[2-chloro-4-[[5-[1-(2,2-difluorocyclopropyl)-3-(trifluoromethyl)pyrazol-4-yl]-1-methylimidazole-2-carbonyl]amino]benzoyl]amino]-3-azabicyclo[3.1.0]hexane-3-carboxamide, formate salt]",150
2,"Cn1c(-c2cn(C3CC3(F)F)nc2C(F)(F)F)cnc1C(=O)Nc1ccc(C(=O)NC2[C@H]3CN(C(=O)N4CC[C@@H](N)C4)C[C@@H]23)c(Cl)c1 (mixture of isomers) [Example 192, N-[4-[[cis-3-[(3R)-3-aminopyrrolidine-1-carbonyl]-3-azabicyclo[3.1.0]hexan-6-yl]carbamoyl]-3-chlorophenyl]-5-[1-(2,2-difluorocyclopropyl)-3-(trifluoromethyl)pyrazol-4-yl]-1-methylimidazole-2-carboxamide, formate salt]",180
3,"Cn1c(-c2cn(C3CC3(F)F)nc2C(F)(F)F)cnc1C(=O)Nc1ccc(C(=O)N[C@H]2[C@@H]3CN(C(=O)N[C@H]4CNC[C@@H]4O)C[C@@H]32)c(Cl)c1 (mixture of isomers) [Example 381, exo-6-(2-chloro-4-(5-(1-(2,2-difluorocyclopropyl)-3-(trifluoromethyl)-1H-pyrazol-4-yl)-1-methyl-1H-imidazole-2-carboxamido)benzamido)-N-((3S,4S)-4-hydroxypyrrolidin-3-yl)-3-azabicyclo[3.1.0]hexane-3-carboxamide formate]",123
4,"Cn1c(-c2cn(C3CC3(F)F)nc2C(F)(F)F)cnc1C(=O)Nc1ccc(C(=O)N[C@H]2[C@@H]3CN(C(=O)N[C@@H]4CNC[C@H]4O)C[C@@H]32)c(Cl)c1 (mixture of isomers) [Example 382, exo-6-[[2-chloro-4-[[5-[1-(2,2-difluorocyclopropyl)-3-(trifluoromethyl)pyrazol-4-yl]-1-methylimidazole-2-carbonyl]amino]benzoyl]amino]-N-[trans-4-hydroxypyrrolidin-azabicyclo[3.1.0]hexane-3-carboxamide, formate salt]",127
5,"CCc1cc(NC(=O)c2ncc(-c3cn(CC#N)nc3C(F)(F)F)n2C)ccc1C(=O)N1CCN(C(=O)N2CC[C@H](C)[C@H](N)C2)CC1 (racemic) [Example 137, 5-[1-(cyanomethyl)-3-(trifluoromethyl)pyrazol-4-yl]-N-[3-ethyl-4-[4-[rac-(3R,4R)-3-amino-4-methylpiperidine-1-carbonyl]piperazine-1-carbonyl]phenyl]-1-methylimidazole-2-carboxamide;formic acid]",845
6,Cn1c(-c2cn(C3CC3(F)F)nc2C(F)(F)F)cnc1C(=O)Nc1ccc(C(=O)NC2[C@H]3CN(C(=O)N[C@H]4CCNC4)C[C@@H]23)c(Cl)c1 (mixture of isomers) [Example 189],167
7,"Cn1c(-c2cn(C3CC3(F)F)nc2C(F)(F)F)cnc1C(=O)Nc1ccc(C(=O)NC2CCN(C(=O)N[C@H]3C[C@@H](N)C3)CC2)c(Cl)c1 (mixture of isomers) [Example 237, rac-N-((1s,3s)-3-aminocyclobutyl)-4-(2-chloro-4-(5-(1-(2,2-difluorocyclopropyl)-3-(trifluoromethyl)-1H-pyrazol-4-yl)-1-methyl-1H-imidazole-2-carboxamido)benzamido)piperi-dine-1-carboxamide formate]",271
8,"Cn1c(-c2cn(C3CC3(F)F)nc2C(F)(F)F)cnc1C(=O)Nc1ccc(C(=O)N2C[C@H]3CNC[C@H]3C2)c(Cl)c1 (mixture of isomers) [Example 271, rac-N-(3-chloro-4-((3aR,6aS)-octahydropyrrolo[3,4-c]pyrrole-2-carbonyl)phenyl)-5-(1-(2,2-difluorocyclopropyl)-3-(trifluoromethyl)-1H-pyrazol-4-yl)-1-methyl-1H-imidazole-2-carboxamide formate]",335
9,"Cn1c(-c2cn(CC(F)F)nc2C(F)(F)F)cnc1C(=O)Nc1ccc(S(=O)(=O)N2CCN(C(=O)N[C@@H]3CNC[C@H]3O)CC2)cc1 (racemic) [Example 279, rac-4-((4-(5-(1-(2,2-difluoroethyl)-3-(trifluoromethyl)-1H-pyrazol-4-yl)-1-methyl-1H-imidazole-2-carboxamido)phenyl)sulfonyl)-N-((3R,4R)-4-hydroxypyrrolidin-3-yl)piperazine-1-carboxamide formate]",344
10,"CO[C@H]1CNC[C@@H]1NC(=O)c1ccc(NC(=O)c2ncc(-c3cn(C4CC4(F)F)nc3C(F)(F)F)n2C)cc1Cl (mixture of isomers) [Example 280, N-(3-chloro-4-((trans-4-methoxypyrrolidin-3-yl)carbamoyl)phenyl)-5-(1-(2,2-difluorocyclopropyl)-3-(trifluoromethyl)-1H-pyrazol-4-yl)-1-methyl-1H-imidazole-2-carboxamide formate]",345
11,"Cn1c(-c2cn(C3CC3(F)F)nc2C(F)(F)F)cnc1C(=O)Nc1ccc(C(=O)NC2C[C@@H]3CC[C@@H](C2)N3)c(Cl)c1 (mixture of isomers) [Example 283, rac-N-(4-(((1R,3s,5S)-8-azabicyclo[3.2.1]octan-3-yl)carbamoyl)-3-chlorophenyl)-5-(1-(2,2-difluorocyclopropyl)-3-(trifluoromethyl)-1H-pyrazol-4-yl)-1-methyl-1H-imidazole-2-carboxamide formate]",348
12,"Cn1c(-c2cn(C3CC3(F)F)nc2C(F)(F)F)cnc1C(=O)Nc1ccc(C(=O)N2C[C@H]3CN(C(=O)N[C@H]4CNC[C@@H]4O)C[C@H]3C2)c(Cl)c1 (mixture of isomers) [Example 288, rac-(3aR,6aS)-5-(2-chloro-4-(5-(1-(2,2-difluorocyclopropyl)-3-(trifluoromethyl)-1H-pyrazol-4-yl)-1-methyl-1H-imidazole-2-carboxamido)benzoyl)-N-((3R,4R)-4-hydroxypyrrolidin-3-yl)hexahydropyrrolo[3,4-c]pyrrole-2(1H)-carboxamide formate]",354
13,"CN(C(=O)c1ccc(NC(=O)c2ncc(-c3cn(C4CC4(F)F)nc3C(F)(F)F)n2C)cc1Cl)C1CCN(C(=O)N[C@H]2C[C@@H](N)C2)CC1 (mixture of isomers) [Example 294, rac-N-((1s,3s)-3-aminocyclobutyl)-4-(2-chloro-4-(5-(1-(2,2-difluorocyclopropyl)-3-(trifluoromethyl)-1H-pyrazol-4-yl)-1-methyl-1H-imidazole-2-carboxamido)-N-methylbenzamido)piperidine-1-carboxamide formate]",363
14,"Cn1c(-c2cn(C3CC3(F)F)nc2C(F)(F)F)cnc1C(=O)Nc1ccc(C(=O)N2CC3C(C2)C3NC(=O)N[C@H]2CNC[C@@H]2O)c(Cl)c1 (mixture of isomers) [Example 300, rac-N-(3-chloro-4-(6-(3-((3R,4R)-4-hydroxypyrrolidin-3-yl)ureido)-3-azabicyclo[3.1.0]hexane-3-carbonyl)phenyl)-5-(1-(2,2-difluorocyclopropyl)-3-(trifluoromethyl)-1H-pyrazol-4-yl)-1-methyl-1H-imidazole-2-carboxamide formate]",367
15,"Cn1c(-c2cn(C3CC3(F)F)nc2C(F)(F)F)cnc1C(=O)Nc1ccc(C(=O)NCC2CC3CN(C(=O)N[C@H]4CNC[C@@H]4O)CC3C2)c(Cl)c1 (mixture of isomers) [Example 310, rac-5-((2-chloro-4-(5-(1-(2,2-difluorocyclopropyl)-3-(trifluoromethyl)-1H-pyrazol-4-yl)-1-methyl-1H-imidazole-2-carboxamido)benzamido)methyl)-N-((3R,4R)-4-hydroxypyrrolidin-3-yl)hexahydrocyclopenta[c]pyrrole-2(1H)-carboxamide formate]",379
16,"Cn1c(-c2cn(C3CC3(F)F)nc2C(F)(F)F)cnc1C(=O)Nc1ccc(C(=O)N2C[C@H]3CNC[C@@H]3C2)c(Cl)c1 (mixture of isomers) [Example 329, rac-N-(3-chloro-4-((3aR,6aR)-octahydropyrrolo[3,4-c]pyrrole-2-carbonyl)phenyl)-5-(1-(2,2-difluorocyclopropyl)-3-(trifluoromethyl)-1H-pyrazol-4-yl)-1-methyl-1H-imidazole-2-carboxamide formate]",420
17,"CN(CCCCNC(=O)c1ccc(NC(=O)c2ncc(-c3cn(C4CC4(F)F)nc3C(F)(F)F)n2C)cc1Cl)C(=O)N[C@H]1CNC[C@@H]1O (mixture of isomers) [Example 331, rac-N-(3-chloro-4-((4-(3-((3S,4S)-4-hydroxypyrrolidin-3-yl)-1-methylureido)butyl)carbamoyl)phenyl)-5-(1-(2,2-difluorocyclopropyl)-3-(trifluoromethyl)-1H-pyrazol-4-yl)-1-methyl-1H-imidazole-2-carboxamide formate]",422

# Same assay, conditions: Acinetobacter baumannii, ATCC17961, read-out: ATCC 17961 IC90, Acinetobacter baumannii ATCC 17961, Iso-Sensitest broth
row,Compound,IC90 [nM]
1,"Cn1c(-c2cn(C3CC3(F)F)nc2C(F)(F)F)cnc1C(=O)Nc1ccc(C(=O)NCC2CCCN(C(=O)N[C@H]3CNC[C@@H]3O)C2)c(Cl)c1 (mixture of isomers) [Example 226, formate]",259
2,"Cn1c(-c2cn(CC3CC3(F)F)nc2C(F)(F)F)cnc1C(=O)Nc1ccc(C(=O)N2CCN(C(=O)N[C@H]3C[C@@H](N)C3)CC2)c(Cl)c1 (mixture of isomers) [Example 254, rac-N-((1s,3s)-3-aminocyclobutyl)-4-(2-chloro-4-(5-(1-((2,2-difluorocyclopropyl)methyl)-3-(trifluoromethyl)-1H-pyrazol-4-yl)-1-methyl-1H-imidazole-2-carboxamido)benzoyl)piperazine-1-carboxamide hydrochloride]",311
